From US12404251B2, “Small molecule compound” (Cerepeut, Inc., priority 2017, dated 2025)
Entries after “also recorded” stand apart in the source; their conditions may differ.

Tests used:
Sprague-Dawley rats = experiment: Rat middle cerebral artery occlusion (MCAO) stroke model; format: in vivo; conditions: rat MCAO 1.5 h, 24 h reperfusion; 25-100 mg/kg intraperitoneally 0 h and 8 h after reperfusion; TTC staining; compared with edaravone 6 mg/kg
Method: Edaravone (3-methyl-1-phenyl-2-pyrazolin-5-one) is a reactive oxygen species (ROS) scavenger approved for the treatment of stroke and ALS in Japan, and for the treatment of ALS in the United States. The efficacy of CPT-2008 for preventing brain damage in a rat middle cerebral artery occlusion (MCOA) model was compared with the efficacy of edaravone. Sprague-Dawley rats were dosed with vehicle, edaravone (6 mg/kg), or CPT-2008 (25-100 mg/kg), and the level of infarcted brain tissue was assessed. In this study rats underwent middle cerebral artery occlusion (MCAO) for 1.5 h followed by 24 h reperfusion. CPT-2008 was given intraperitoneally 0 h and 8 h after reperfusion, and behavior deficits and brain insult were assessed by Longa score scale and TTC staining, respectively. […] It is believed that the improved benefit of CPT-2008 is due, in part, to prevention ROS formation in brain tissue mitochondria.

T98G = experiment: CellTiter-Glo cell viability, T98G glioblastoma model; format: cell-based, human; conditions: 72 hour incubation
Method: (§1) Cell seeding (Day “−1”): The cell density of eight adherent cell lines was adjusted according to supplier-recommended information. 50 μL cells were seeded in four 384-well-plates, and 50 μL DPBS was added to the edge wells.
(§2) Compound preparation (Day 0): All test compounds were dissolved in DMSO and stored in a nitrogen cabinet. The stock concentration of the test compounds was 120 mM. The stock concentration of the reference compounds was 10 mM. The reference compound paclitaxel was diluted with DMSO to provide a 400 μM stock solution.
(§3) Cell treatment with test compounds (Day 0): Test compounds (125 nL in DMSO) were added to the wells using an ECHO liquid handling system (Labcyte Inc.) and serially diluted by three fold, providing 10 doses in each series with a maximum concentration of 300 μM. […]
(§4) Assay (Day 3): After the cells were treated with the compounds for 72 hours, the plates were equilibrated at room temperature for approximately 30 minutes. 25 μL of CellTiter Glo reagent was added to each well, and the luminescence in each well was measured after 10 min using an ENVISION fluorescence plate reader (PerkinElmer). […]
(§5) To evaluate the anti-tumor activity of CPT-2008, the growth inhibitory effect of the compound was measured in various human cancer cell lines after 72 hour incubation. […] The data recorded for the paclitaxel reference compound were consistent with the historical published data.

paclitaxel-treated rats = experiment: Paclitaxel-induced neuropathic pain model, paw withdrawal test; format: in vivo, rat; conditions: 100 mg/kg intraperitoneal; 1.5 h, 3 h, 4.5 h post dosing; vs vehicle (FIG. 20)
Method: An estimated 30-40% of cancer patients undergoing chemotherapy experience peripheral neuropathic pain, a neuroinflammation-induced debilitating side effect that causes patients to stop their treatment early or take lower doses. The effects of CPT-2008 in reducing neuropathic pain were studied in paclitaxel-treated rats. After paclitaxel treatment for 8 days, Sprague-Dawley rats were housed for additional days. On day 22, 16 rats were randomly separated into two groups. One group was dosed with vehicle, and the other group was dosed via intraperitoneal injection with CPT-2008 at 100 mg/kg. Pain (mechanical allodynia) test subjects was assessed using a paw withdrawal test (PWT) as described by Xie (“Activation of notch signaling mediates the induction and maintenance of mechanical allodynia in a rat model of neuropathic pain.” Molecular Medicine Reports 12: 639-644, 2015). Rats were measured for paw withdrawal threshold post dosing of test compound at 1.5 h, 3 h, and 4.5 h.

human GBM cells [1] = experiment: Self-renewal of GBM cells (neurosphere formation); format: cell-based; conditions: 20 uM CPT-2008 vs DMSO vehicle (FIG. 18)
Method: Control: cells treated with DMSO vehicle; CPT-2008: cells treated with 20 uM CPT-2008.
(§6) CPT-2008 affects mitochondrial function. […] Given the important role of mitochondria in maintaining cancer cells, especially cancer stem cells, the effects of CPT-2008 on a number of mitochondrial parameters in human glioblastoma (GBM) cells were texted next. First, the effects of CPT-2008 on mitochondrial ROS level were studied. For this purpose, the mito-SOX dye was used. Mito-SOX can specifically monitor mitochondrial ROS levels. […] The effect of CPT-2008 on mitochondrial membrane potential, a key factor that determines mitochondrial health and activity, was also measured using the TRM dye. […] The effect of CPT-2008 on mitochondrial calcium homeostasis was also measured using the Rhod-2AM dye, which specifically monitors mitochondrial calcium levels. […] The effect of CPT-2008 on mitochondrial morphology was also measured using immunostaining of the mitochondrial outer membrane marker Tom20. […] Finally, the effect of CPT-2008 on the self-renewal of GBM cells was tested.

human GBM cells [2] = experiment: Mitochondrial ROS, Mito-SOX staining; format: cell-based; conditions: vs DMSO control (FIG. 15)
Text: GBM cells treated with DMSO vehicle (control) or with CPT-2008 in DMSO were stained with Mito-SOX to probe mitochondrial ROS level.
as §6

GBM cells = experiment: Mitochondrial morphology, TOM-20 immunostaining; format: cell-based, human; conditions: vs DMSO control (FIG. 16)
Text: GBM cells treated with DMSO (control) or CPT-2008 in DMSO were immunostained for TOM-20 to reveal mitochondrial morphology.
as §6

MCF7 = experiment: CellTiter-Glo cell viability, MCF7 breast cancer model; format: cell-based, human; conditions: MCF7, 72 hour incubation
Method: as §1, §2, §3, §4, §5

HCT116 = experiment: CellTiter-Glo cell viability, HCT116 colorectal cancer model; format: cell-based, human; conditions: HCT116, 72 hour incubation
Method: as §1, §2, §3, §4, §5

in vitro [3] = format: in vitro ADME; conditions: human
Molt-4 = experiment: CellTiter-Glo cell viability, Molt-4 T-ALL model; format: cell-based, human; conditions: Molt-4, 72 hour incubation
Method: as §1, §2, §3, §4, §5

NCI-H82 = experiment: CellTiter-Glo cell viability, NCI-H82 SCLC model; format: cell-based, human; conditions: NCI-H82, 72 hour incubation
Method: as §1, §2, §3, §4, §5

A2780 = experiment: CellTiter-Glo cell viability, A2780 ovarian cancer model; format: cell-based, human; conditions: A2780, 72 hour incubation
Method: as §1, §2, §3, §4, §5

NCI-H1299 = experiment: CellTiter-Glo cell viability, NCI-H1299 NSCLC model; format: cell-based, human; conditions: NCI-H1299, 72 hour incubation
Method: as §1, §2, §3, §4, §5

U118MG = experiment: CellTiter-Glo cell viability, U118MG glioblastoma model; format: cell-based, human; conditions: 72 hour incubation
Method: as §1, §2, §3, §4, §5

A549 = experiment: CellTiter-Glo cell viability, A549 NSCLC model; format: cell-based, human; conditions: A549, 72 hour incubation
Method: as §1, §2, §3, §4, §5

[4] = Pharmacokinetics in Sprague-Dawley rats (plasma and brain); format: in vivo, rat; conditions: for bioavailability: Sprague-Dawley, rat, in vivo
Method: Sprague-Dawley rats were administered CPT-2008 by IV or PO. Blood samples (about 1 mL) were collected via cardiac puncture after euthanasia by carbon dioxide inhalation at 5 min, 15 min, 30 min, 1 h, 2 h, 4 h, 8 h, 24 h of post dose. Blood samples were placed into tubes containing heparin sodium and centrifuged at 3500 rpm for 10 minutes at 4° C. to separate plasma from the samples. Following centrifugation, the resulting plasma was transferred to labeled tubes and stored frozen at −80° C. pending bioanalysis. The brain each studied animal at each time point was collected after the animal was euthanized by carbon dioxide inhalation. The whole tissue was harvested, excised and then placed into one tube per tissue per animal. The tissue samples were placed on dry ice and then stored at −80° C. until bioanalysis.

Jurkat = experiment: CellTiter-Glo cell viability, Jurkat T cell leukemia model; format: cell-based, human; conditions: 72 hour incubation
Method: as §1, §2, §3, §4, §5

NCI-H446 = experiment: CellTiter-Glo cell viability, NCI-H446 SCLC model; format: cell-based, human; conditions: NCI-H446, 72 hour incubation
Method: as §1, §2, §3, §4, §5

human GBM cells [5] = experiment: Mitochondrial calcium, Rhod-2AM staining; format: cell-based; conditions: vs DMSO control (FIG. 14)
Text: GBM cells treated with DMSO vehicle (control) or with CPT-2008 in DMSO were stained with Rhod-2AM to probe mitochondrial calcium (mito-Ca^2+) level. CPT-2008 elevated mito-Ca^2+.
as §6

in vitro [6] = format: in vitro ADME; conditions: human; remark: listed apart in the source
human GBM cells [7] = experiment: Mitochondrial membrane potential, TMRM staining; format: cell-based; conditions: vs DMSO vehicle (FIG. 17)
Text: GBM cells treated with DMSO vehicle or with CPT-2008 in DMSO were stained with TMRM to probe mitochondrial membrane potential.
as §6

In the case of `COc1cc(-n2c(S)nc3cc(OC)c(Cl)cc3c2=O)c(Cl)cc1Cl` [CPT-2008, 6-chloro-3-(2,4-dichloro-5-methoxyphenyl)-2-mercapto-7-methoxyquinazolin-4(3H)-one], the “level of infarcted (dead) brain tissue” value (Sprague-Dawley rats) is reported as “reduced levels of dead brain tissue”, the IC50 (T98G) is reported as “low μM range” and the “paw withdrawal threshold (mechanical allodynia)” value (paclitaxel-treated rats) is reported as “increased threshold values”. The “self-renewal of GBM cells (ability to form neurospheres)” value (human GBM cells [1]) was “significantly inhibited; also recorded: lost such ability”, the “mitochondrial ROS level” value (human GBM cells [2]) was “significant increase; also recorded: significantly elevated” and the mitochondrial morphology (GBM cells) was “dramatic fragmentation of mitochondria; also recorded: induced mitochondrial size reduction”. The IC50 (MCF7) was “low μM range”, the IC50 (HCT116) was “low μM range” and the stability in microsomes (in vitro [3]) was “excellent stability”. For the same molecule, the half-life (in vitro [3]; microsomes) was ~3.6 h, the IC50 (Molt-4) was “low μM range” and the IC50 (NCI-H82) was “nM range”. The IC50 (A2780) was “nM range”, the IC50 (NCI-H1299) was “low μM range” and the IC50 (U118MG) was “low μM range”. For the same molecule, the IC50 (A549) was “low μM range”, the “crossing of the blood brain barrier” value ([4]; Sprague-Dawley rats, IV or PO (FIG. 21A, 21B)) was “efficiently cross the blood brain barrier” and the bioavailability ([4]; brain bioavailability) was 39%. For the same molecule, the bioavailability ([4]; plasma bioavailability) was 94.5%, the IC50 (Jurkat) was “nM range” and the IC50 (NCI-H446) was “nM range”. For the same molecule, the “mitochondrial calcium (mito-Ca2+) level” value (human GBM cells [5]) was “caused an increase; also recorded: elevated”, the stability in hepatocytes (in vitro [6]) was “excellent stability” and the half-life (in vitro [6]; hepatocytes, half-life) was ~94.3 h. For the same molecule, the mitochondrial membrane potential (human GBM cells [7]) was “dramatic reduction; also recorded: dramatically reduced”.
